Patent publication US8552028B2, “8-phenylisoquinolines and pharmaceutical composition used in treatment for sepsis” (National Taiwan University, priority 2011, dated 2013)

Legend:
[1] = system: 5-HT induced amplification of platelet aggregation; experiment: Collagen-elicited aggregation of rat platelet rich plasma, amplified by serotonin (Lumi-aggregometer); assay type: cell-based, Spraque-Dawley rats; details: rat PRP; for amplifying effects of serotonin on collagen induced platelet aggregation: collagen 3 μg/mL
Procedure: Blood samples were collected from male adult Spraque-Dawley rats, and platelet rich plasma (PRP) and platelet poor plasma (PPP) were obtained by centrifugation. Aggregation was elicited by adding collagen 3 μg/mL in PRP, and the aggregation response was recorded as the change of light transmission of PRP with Lumi-aggregometer. In FIG. 9a, collagen induced platelet aggregation, and the aggregation response was amplified by adding 10 μM serotonin in 30 seconds before adding collagen, as shown in FIG. 9b.

5-HT2A receptor = 5-HT2A receptor (Homo sapiens, UniProt P28223); experiment: 5-HT2A receptor binding affinity; details: for Ki: 5-HT2A receptor binding affinity; for 5-HT2A receptor binding affinity compared with sarpogrelate and ketanserin: comparison of Ki values, Table 8
Chain of 5-HT2A receptor (P28223 whole entry): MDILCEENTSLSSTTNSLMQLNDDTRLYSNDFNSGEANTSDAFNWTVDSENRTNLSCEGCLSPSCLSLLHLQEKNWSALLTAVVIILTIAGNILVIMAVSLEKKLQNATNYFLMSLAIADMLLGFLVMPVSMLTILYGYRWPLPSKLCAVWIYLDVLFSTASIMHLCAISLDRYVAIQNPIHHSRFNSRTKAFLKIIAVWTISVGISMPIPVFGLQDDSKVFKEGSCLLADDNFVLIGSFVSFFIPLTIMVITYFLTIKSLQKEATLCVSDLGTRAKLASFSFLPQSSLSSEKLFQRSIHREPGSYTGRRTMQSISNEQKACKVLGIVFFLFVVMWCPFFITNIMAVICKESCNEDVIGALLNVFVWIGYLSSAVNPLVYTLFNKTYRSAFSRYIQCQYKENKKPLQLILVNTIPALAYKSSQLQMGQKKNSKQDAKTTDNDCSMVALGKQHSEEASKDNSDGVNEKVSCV
Text: The 5-HT2A Receptor Binding Affinity of Compounds 116, 157 and 167.
The 5-HT2A receptor binding affinity data are represented by Ki values.

LPS induced endotoxaemia = experiment: Post-treatment of multiple doses on LPS induced endotoxaemia in mice model (survival); assay type: in vivo; details: for survival curve versus vehicle control group: Log rank test, p<0.01
Procedure: 12 hours after intraperitoneal injection of lipopolysaccharide (LPS) 100 mg/kg, compound 116 100 μg/kg or 300 μg/kg were administrated intraperitoneally or subcutaneously every 6 hour till 48 hours after LPS insults. […] Survival curves were compared by the Log rank test, and 3 days survival rate was compared by the chi square test.

[2] = system: rat de-endothelial thoracic descending aorta; experiment: Serotonin induced rat thoracic aorta contraction (organ bath); set-up: species or system Sprague Dawley rats; details: 0.03 or 0.1 μM in organ bath; cumulative serotonin 30 nM-0.1 mM; FIG. 10
Procedure: Thoracic aortae were obtained from adult male Sprague Dawley rats. The aortae were cleared of adhering periadventitial fat and cut into strips 3-4 mm in length. […] The tissue was incubated with warmed (37° C.), oxygenated (95% O2/5% CO2) Krebs-Henseleit solution (KBS, pH7.4) consisting of NaCl 118.2 mM, KCl 4.7 mM, KH2PO4 1.2 mM, MgSO4 1.2 mM, CaCl2·2H2O 1.9 mM, NaHCO3 25 mM and glucose 11.7 mM. Indomethacin (10 μM) was added to prevent the production of prostanoids. One end of the segment was fixed to the organ bath chamber, and the other to a force transducer (Type BG 25; Gould, Oxnard, Calif., USA) in which tension is recorded (model RS 3400 recorder, Gould). The preparations were allowed to equilibrate for at least 60 min under a passive tension of 1.5±0.2 g. Cumulative responses to serotonin (30 nM-0.1 mM) were examined for 20 min after addition of 0.03 or 0.1 μM compound 116 to the organ bath. Contraction responses were expressed as the percentage of maximum contraction.

Row | SMILES | Ki (5-HT2A receptor) | 5-HT2A receptor binding affinity compared with sarpogrelate and ketanserin (5-HT2A receptor) | also measured
1 | O=C(c1ccc(F)cc1)C1CCN(CCn2c(=O)[nH]c3ccccc3c2=O)CC1 [ketanserin, reference compound] | – | – | amplifying effects of serotonin on collagen induced platelet aggregation ([1]; 10 μM added 30 seconds before 10 μM serotonin): blocked
2 | COc1cc2c(c(-c3ccccc3F)c1OC)CN(CCc1ccccc1Cl)CC2 [Compound 167] | 0.119 nM | higher than those of the well-known 5-HT2A receptor antagonists | effect of post-treatment of multiple doses on LPS induced endotoxaemia (LPS induced endotoxaemia; same method as for compound 116, FIG. 8): Protective Effects
3 | COc1ccc(-c2c(O)c(OC)cc3c2CN(CCc2ccccc2F)CC3)c(OC)c1 [Compound 116] | 3.47 nM | higher than those of the well-known 5-HT2A receptor antagonists | amplifying effects of serotonin on collagen induced platelet aggregation ([1]; 3 μg/mL added 30 seconds before 10 μM serotonin): blocked; platelet activation ([1]; FIGS. 9a-9d): Did not Exert Platelet Activation; survival curve versus vehicle control group (LPS induced endotoxaemia; 100 μg/kg i.p. or s.c. every 6 hour from 12 h till 48 hours after LPS 100 mg/kg i.p.): shifted the survive curve rightward significantly; survival curve versus vehicle control group (LPS induced endotoxaemia; 300 μg/kg i.p. or s.c. every 6 hour from 12 h till 48 hours after LPS 100 mg/kg i.p.): shifted the survive curve rightward significantly; serotonin induced smooth muscle contraction [2]: inhibits serotonin induced smooth muscle contraction in a dose dependent manner
4 | COc1cc2c(c(-c3ccccc3F)c1OC)CN(CCc1ccccc1)CC2 [Compound 157] | 2.21 nM | higher than those of the well-known 5-HT2A receptor antagonists | –
5 | COc1cccc(CCc2ccccc2OCC(CN(C)C)OC(=O)CCC(=O)O)c1 (centres unmarked) [sarpogrelate, reference compound] | 8.39 nM | – | –
